Measurements as given in patent publication US4264774A, “2-Thiophenesulfonyl bromides” (The Dow Chemical Company, priority 1976, dated 1981).
≈ marks a conversion by molar mass, not a printed value.

Columns and labels:
Type in all cases: cell-based
S. aureus [1] = experiment: in vitro agar Petri dish dilution test, Sa; details: Staphylococcus aureus, 100% inhibition
Excerpt: (§1) The compounds of this invention have antimicrobial utility. In conventional in vitro agar Petri dish dilution tests, the following compounds and some corresponding art compounds gave 100% inhibition of the following organisms at the indicated concentrations in parts per million.

C. albicans = experiment: in vitro agar Petri dish dilution test, Ca; details: Candida albicans, 100% inhibition
Excerpt: as §1

T. mentagrophytes = experiment: in vitro agar Petri dish dilution test, Tm; details: Trichophyton mentagrophytes, 100% inhibition
Excerpt: as §1
Tm = T. mentagrophytes -

A. niger = experiment: in vitro agar Petri dish dilution test, An; details: Aspergillus niger, 100% inhibition
Excerpt: as §1

B. subtilis [2] = experiment: in vitro agar Petri dish dilution test, Bs; details: Bacillus subtilis, 100% inhibition
Excerpt: as §1

A. aerogenes = experiment: in vitro agar Petri dish dilution test, Aa; details: Klebsiella aerogenes, 100% inhibition
Excerpt: as §1

C. pelliculosa [3] = experiment: in vitro agar Petri dish dilution test, Cp; details: Hansenula anomala, 100% inhibition
Excerpt: as §1

P. pullulans = experiment: in vitro agar Petri dish dilution test, Pp; details: 100% inhibition
Excerpt: as §1

[4] = system: Pseudomonas Sp. Strain 10; experiment: in vitro agar Petri dish dilution test, Ps 10; details: 100% inhibition
Excerpt: as §1
Ps 10 = Pseudomonas Sp. Strain 10

T. Sp. Madison P42 = experiment: in vitro agar Petri dish dilution test, Tr 42; details: 100% inhibition
Excerpt: as §1
Tr 42 = T. Sp. Madison P42

S. typhosa = experiment: in vitro agar Petri dish dilution test, St; details: for MIC: 100% inhibition
Excerpt: as §1

C. IPS = experiment: in vitro agar Petri dish dilution test, CI; details: 100% inhibition
Excerpt: as §1

E. coli = experiment: in vitro agar Petri dish dilution test, Ec; details: Escherichia coli, 100% inhibition
Excerpt: as §1

M. phlei = experiment: in vitro agar Petri dish dilution test, Mp; details: Mycolicibacterium phlei, 100% inhibition
Excerpt: as §1

R. nigricans = experiment: in vitro agar Petri dish dilution test, Rn; details: Rhizopus stolonifer, 100% inhibition
Excerpt: as §1

S. aureus [5] = experiment: in vitro agar Petri dish dilution test, Sa; details: Staphylococcus aureus
B. subtilis [6] = experiment: in vitro agar Petri dish dilution test, Bs; details: Bacillus subtilis
C. pelliculosa [7] = experiment: in vitro agar Petri dish dilution test, Cp; details: Hansenula anomala

Structure (SMILES)	MIC (S. aureus [1])	MIC (C. albicans)	MIC (T. mentagrophytes)	MIC (A. niger)	MIC (B. subtilis [2])	MIC (A. aerogenes)	MIC (C. pelliculosa [3])	MIC (P. pullulans)	MIC [4]	MIC (T. Sp. Madison P42)	MIC (S. typhosa)	MIC (C. IPS)	MIC (E. coli)	MIC (M. phlei)	MIC (R. nigricans)	inhibition at 500 ppm (S. typhosa)	inhibition at 500 ppm (S. aureus [5])	inhibition at 500 ppm (B. subtilis [6])	inhibition at 500 ppm (C. pelliculosa [7])
O=S(=O)(Cl)c1sc(Br)c(Br)c1Br [3,4,5-Br3, reference compound]	> 100 µg/mL	> 100 µg/mL	> 100 µg/mL	> 100 µg/mL	> 100 µg/mL	> 100 µg/mL	> 100 µg/mL												
O=S(=O)(Br)c1sc(Br)c(Br)c1Br [3,4,5-Br3]	50 µg/mL (≈ 108 µM)	100 µg/mL (≈ 216 µM)	50 µg/mL (≈ 108 µM)	50 µg/mL (≈ 108 µM)	50 µg/mL (≈ 108 µM)	> 100 µg/mL	50 µg/mL (≈ 108 µM)	50 µg/mL (≈ 108 µM)	50 µg/mL (≈ 108 µM)	50 µg/mL (≈ 108 µM)									
O=S(=O)(Cl)c1sc(Br)cc1Br [3,5-Br2, reference compound]	> 100 µg/mL	> 100 µg/mL	> 100 µg/mL	> 100 µg/mL	> 100 µg/mL	> 100 µg/mL	> 100 µg/mL	> 100 µg/mL	> 100 µg/mL	> 100 µg/mL	> 100 µg/mL	> 100 µg/mL							
O=S(=O)(Br)c1sc(Br)cc1Br [3,5-Br2]	50 µg/mL (≈ 130 µM)	100 µg/mL (≈ 260 µM)	50 µg/mL (≈ 130 µM)		50 µg/mL (≈ 130 µM)	50 µg/mL (≈ 130 µM)	50 µg/mL (≈ 130 µM)	100 µg/mL (≈ 260 µM)	50 µg/mL (≈ 130 µM)	100 µg/mL (≈ 260 µM)	50 µg/mL (≈ 130 µM)								
O=S(=O)(Cl)c1cc(Br)c(Br)s1 [4,5-Br2, reference compound]	> 100 µg/mL	> 100 µg/mL	100 µg/mL (≈ 294 µM)	> 100 µg/mL	> 100 µg/mL	> 100 µg/mL	100 µg/mL (≈ 294 µM)												
O=S(=O)(Br)c1cc(Br)c(Br)s1 [4,5-Br2]	50 µg/mL (≈ 130 µM)	100 µg/mL (≈ 260 µM)	100 µg/mL (≈ 260 µM)	100 µg/mL (≈ 260 µM)	50 µg/mL (≈ 130 µM)	100 µg/mL (≈ 260 µM)	100 µg/mL (≈ 260 µM)	100 µg/mL (≈ 260 µM)	50 µg/mL (≈ 130 µM)	100 µg/mL (≈ 260 µM)	50 µg/mL (≈ 130 µM)								
O=S(=O)(Br)c1ccc(Br)s1 [5-Br, 5-Bromo-2-thiophenesulfonyl Bromide]	500 µg/mL	100 µg/mL	100 µg/mL	100 µg/mL	100 µg/mL	500 µg/mL	100 µg/mL	100 µg/mL	100 µg/mL	100 µg/mL			500 µg/mL	500 µg/mL	100 µg/mL				
CCc1ccc(S(=O)(=O)Br)s1 [5-C2 H5]	500 µg/mL (≈ 1960 µM)	500 µg/mL (≈ 1960 µM)	100 µg/mL (≈ 392 µM)	100 µg/mL (≈ 392 µM)	100 µg/mL (≈ 392 µM)	500 µg/mL (≈ 1960 µM)	100 µg/mL (≈ 392 µM)	100 µg/mL (≈ 392 µM)	100 µg/mL (≈ 392 µM)	100 µg/mL (≈ 392 µM)			500 µg/mL (≈ 1960 µM)		100 µg/mL (≈ 392 µM)				
CCc1ccc(S(=O)(=O)Cl)s1 [5-C2 H5]																50%			
Cc1ccc(S(=O)(=O)Br)s1 [5-CH3]	100 µg/mL (≈ 415 µM)	> 100 µg/mL	> 100 µg/mL	> 100 µg/mL	> 100 µg/mL	> 100 µg/mL	> 100 µg/mL	> 100 µg/mL	50 µg/mL (≈ 207 µM)	> 100 µg/mL	50 µg/mL (≈ 207 µM)	> 100 µg/mL							
Cc1ccc(S(=O)(=O)Cl)s1 [5-CH3]																50%			
O=S(=O)(Br)c1ccc(Cl)s1 [5-Cl, 5-Chloro-2-thiophenesulfonyl Bromide]	500 µg/mL	100 µg/mL	100 µg/mL	100 µg/mL	500 µg/mL	500 µg/mL	100 µg/mL	100 µg/mL	500 µg/mL	100 µg/mL			100 µg/mL	500 µg/mL	100 µg/mL				
CCCCc1ccc(S(=O)(=O)Cl)s1 [5-butyl, reference compound]		> 500 µg/mL	500 µg/mL (≈ 2090 µM)	> 500 µg/mL		> 500 µg/mL		> 500 µg/mL			> 500 µg/mL		> 500 µg/mL				50%	50%	50%
CCCCc1ccc(S(=O)(=O)Br)s1 [5-butyl]	500 µg/mL (≈ 1770 µM)	500 µg/mL (≈ 1770 µM)	100 µg/mL (≈ 353 µM)	100 µg/mL (≈ 353 µM)	100 µg/mL (≈ 353 µM)	500 µg/mL (≈ 1770 µM)	100 µg/mL (≈ 353 µM)	100 µg/mL (≈ 353 µM)	500 µg/mL (≈ 1770 µM)	100 µg/mL (≈ 353 µM)			500 µg/mL (≈ 1770 µM)		100 µg/mL (≈ 353 µM)				
O=S(=O)(Br)c1cccs1 [H, 2-Thiophenesulfonyl Bromide]	500 µg/mL	100 µg/mL	100 µg/mL	100 µg/mL	100 µg/mL	100 µg/mL	100 µg/mL	100 µg/mL	100 µg/mL	100 µg/mL			100 µg/mL	100 µg/mL	100 µg/mL				
O=S(=O)(Cl)c1cccs1 [H, 2-thiophenesulfonyl chloride, reference compound]	> 500 µg/mL	> 500 µg/mL	> 500 µg/mL	> 500 µg/mL	> 500 µg/mL	> 500 µg/mL	> 500 µg/mL	> 500 µg/mL	> 500 µg/mL	> 500 µg/mL	> 500 µg/mL	> 500 µg/mL	> 500 µg/mL	500 µg/mL	> 500 µg/mL				
